Earlier results in patent publication US8293789B2, “Method of preparing a latanoprost opthalmic solution and the resulting solution” (priority 2004, dated 2012).

Legend:
[1] = system: patients with open angle glaucoma or ocular hypertension; details: for circadian / nocturnal reduction of intraocular pressure: day versus night
[2] = not given; remark: listed apart in the source

| Structure (SMILES) | circadian / nocturnal reduction of intraocular pressure [1] | time to peak concentration in the aqueous humor (after local administration) [h] | plasmatic mid life (in humans, sentence follows statements on latanoprost acid) [min] | time to maximum concentration in the aqueous humor (studies on humans, following administration) | effectiveness of one sole daily application versus double daily application of other glaucoma agents ([1]; latanoprost 0.005%, patients with open angle glaucoma or ocular hypertension) | patients with a reduction in the intraocular pressure of at least 30% ([1]; patients treated with latanoprost, after 6 months of treatment) [%] | effectiveness as hypotensive agent compared with unoprostone ([1]; patients, versus unoprostone) | solubility in organic solvents ([2]; acetone, ethanol, ethyl acetate, isopropanol, methanol and octanol) | solubility in acetonitrile ([2]; acetonitrile) | solubility in water ([2]; water) |
| --- | --- | --- | --- | --- | --- | --- | --- | --- | --- | --- |
| CC(C)(C)NC[C@H](O)COc1nsnc1N1CCOCC1 [timolol] | less effective during the night |  |  |  |  |  |  |  |  |  |
| CCN[C@H]1C[C@H](C)S(=O)(=O)c2sc(S(N)(=O)=O)cc21 [Dorzolamide] | less effective than latanoprost |  |  |  |  |  |  |  |  |  |
| CC(C)OC(=O)CCC/C=C\C[C@@H]1[C@@H](CC[C@@H](O)CCc2ccccc2)[C@H](O)C[C@@H]1O [latanoprost, isopropilic ester of the prostaglandin F2α 17-phenyl-13,14dihydro] | more uniform circadian reduction | 2 | 17 | approximately two | at least as effective | 52 | better results | freely soluble | highly soluble | practically insoluble |
